Assay results taken from patent US11384079B2, “6-5 fused rings as C5a inhibitors” (CHEMOCENTRYX, INC., priority 2017, dated 2022).

Target: T1, C5aR (Homo sapiens, UniProt P21730)
T1 construct: U937 cells are a monocytic cell line which express C5aR; host or cells: U937 cells (cAMP treated) or isolated neutrophils
T1 sequence (P21730 1-350): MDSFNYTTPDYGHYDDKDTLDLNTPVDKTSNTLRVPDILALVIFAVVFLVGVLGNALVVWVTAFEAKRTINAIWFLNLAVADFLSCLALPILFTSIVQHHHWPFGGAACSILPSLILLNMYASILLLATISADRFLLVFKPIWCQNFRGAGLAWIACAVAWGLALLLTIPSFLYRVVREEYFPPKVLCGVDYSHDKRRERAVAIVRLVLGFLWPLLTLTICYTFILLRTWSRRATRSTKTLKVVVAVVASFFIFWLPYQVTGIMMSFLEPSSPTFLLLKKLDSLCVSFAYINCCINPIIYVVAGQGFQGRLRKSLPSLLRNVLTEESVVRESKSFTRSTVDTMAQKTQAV
Test: chemotaxis assay (C5aR mediated migration)
Format: cell-based
Conditions: migration of U937 or neutrophil cells toward C5a (0.03 nM), 1.5 hours at 37° C., read-out: Mig IC50
Description: U937 cells are a monocytic cell line which express C5aR, and are available from ATCC (VA). […] Cells were grown under 5% CO2/95% air, 100% humidity at 37° C. and subcultured twice weekly at 1:6 (cells were cultured at a density range of 1×10^5 to 2×10^6 cells/mL) and harvested at 1×10^6 cells/mL. Prior to assay, cells are treated overnight with 0.5 mM of cyclic AMP (Sigma, Ohio) and washed once prior to use. cAMP treated U937 cells can be used in C5aR ligand binding and functional assays.
Optionally, human or murine neutrophils can be used to assay for compound activity. Neutrophils may be isolated from fresh human blood using density separation and centrifugation. Briefly, whole blood is incubated with equal parts 3% dextran and allowed to separate for 45 minutes. After separation, the top layer is layered on top of 15 mls of Ficoll (15 mls of Ficoll for every 30 mls of blood suspension) and centrifuged for 30 minutes at 400×g with no brake. The pellet at the bottom of the tube is then isolated and resuspended into PharmLyse RBC Lysis Buffer (BD Biosciences, San Jose, Calif.) after which the sample is again centrifuged for 10 minutes at 400×g with brake. The remaining cell pellet is resuspended as appropriate and consists of isolated neutrophils.
Optionally, compounds may be further assayed for their ability to inhibit chemotaxis in cells. Chemotaxis assays are performed using 5 μm pore polycarbonate, polyvinylpyrrolidone-coated filters in 96-well chemotaxis chambers (Neuroprobe; Gaithersburg, Md.) using chemotaxis buffer (Hank's balanced salt solution (HBSS) and 1% FBS). C5aR ligands (i.e., C5a, R&D Systems; Minneapolis, Minn.) are use to evaluate compound mediated inhibition of C5aR mediated migration. Other chemokines (i.e., SDF-1α; R&D Systems; Minneapolis, Minn.) are used as specificity controls. […] The chambers are incubated 1.5 hours at 37° C., and the number of cells in the lower chamber quantified either by direct cell counts in five high powered fields per well or by the CyQuant assay (Molecular Probes), a fluorescent dye method that measures nucleic acid content and microscopic observation.

Row | IC50 [nM] | Compound
1 | 5 to 50 | Cc1cccc(C)c1-n1nc2c(c1-c1ccc(C)c3[nH]ccc13)CN(c1ncc(C(F)(F)F)cc1F)CC2 [Example 1.108]
2 | < 5 | CCc1cccc(CC)c1-n1nc2c(c1-c1c(F)cc(Cl)c3[nH]ccc13)CN(c1ccc(C(C)C)cn1)CC2 [Example 1.109]
3 | 5 to 50 | CCc1cccc(CC)c1-n1nc2c(c1-c1ccc(Cl)c3[nH]ccc13)CN(c1nccc(C)n1)CC2 [Example 1.110]
4 | < 5 | CCc1cccc(CC)c1-n1nc2c(c1-c1cc(F)c(C)c3[nH]ccc13)CN(c1ncc(C(C)C)cn1)CC2 [Example 1.115]
5 | 5 to 50 | CCc1cccc(CC)c1-n1nc2c(c1-c1cc(F)c(F)c3[nH]ccc13)CN(c1ncc(C(C)C)cn1)CC2 [Example 1.117]
6 | 5 to 50 | CCc1cccc(CC)c1-n1nc2c(c1-c1cc(F)c(F)c3[nH]ccc13)CN(c1ncc(C(F)(F)F)cc1F)CC2 [Example 1.120]
7 | < 5 | CCc1cccc(CC)c1-n1nc2c(c1-c1cc(F)c(C)c3[nH]ccc13)CN(c1ncc(C(F)(F)F)cc1F)CC2 [Example 1.123]
8 | < 5 | CCc1cccc(CC)c1-n1nc2c(c1-c1c(F)cc(Cl)c3[nH]ccc13)CN(c1ncc(C(C)C)cc1F)CC2 [Example 1.125]
9 | < 5 | CCc1cccc(CC)c1-n1nc2c(c1-c1ccc(Cl)c3[nH]ccc13)CN(c1ncc(OC)cn1)CC2 [Example 1.126]
10 | < 5 | CCc1cccc(CC)c1-n1nc2c(c1-c1ccc(C)c3[nH]ccc13)CN(c1ccc(C(C)C)cn1)CC2 [Example 1.127]
11 | < 5 | CCc1cccc(CC)c1-n1nc2c(c1-c1c(F)cc(C)c3[nH]ccc13)CN(c1ccc(C(C)C)cn1)CC2 [Example 1.128]
12 | < 5 | CCc1cccc(CC)c1-n1nc2c(c1-c1c(F)cc(Cl)c3[nH]ccc13)CN(c1ncc(C(C)C)cn1)CC2 [Example 1.132]
13 | < 5 | CCc1cccc(CC)c1-n1nc2c(c1-c1ccc(Cl)c3[nH]ccc13)CN(c1ccc(C(C)C)cn1)CC2 [Example 1.135]
14 | < 5 | CCc1cccc(CC)c1-n1nc2c(c1-c1ccc(C)c3[nH]ccc13)CN(c1ncc(C(C)C)cc1F)CC2 [Example 1.136]
15 | < 5 | CCc1cccc(CC)c1-n1nc2c(c1-c1c(F)cc(C)c3[nH]ccc13)CN(c1ncc(C(C)C)cn1)CC2 [Example 1.139]
16 | < 5 | CCc1cccc(CC)c1-n1nc2c(c1-c1ccc(C)c3[nH]ccc13)CN(c1ncc(C(F)(F)F)cn1)CC2 [Example 1.140]
17 | < 5 | CCc1cccc(CC)c1-n1nc2c(c1-c1ccc(C)c3[nH]ccc13)CN(c1ccc(C(F)(F)F)cn1)CC2 [Example 1.142]
18 | < 5 | CCc1cccc(CC)c1-n1nc2c(c1-c1c(F)cc(C)c3[nH]ccc13)CN(c1ccc(C(F)(F)F)cn1)CC2 [Example 1.143]
19 | < 5 | CCc1cccc(CC)c1-n1nc2c(c1-c1c(F)cc(C)c3[nH]ccc13)CN(c1ncc(C(C)C)cc1F)CC2 [Example 1.145]
20 | < 5 | CCc1cccc(CC)c1-n1nc2c(c1-c1ccc(Cl)c3[nH]cc(C)c13)CN(c1ncc(C(F)(F)F)cc1F)CC2 [Example 1.146]
21 | < 5 | CCc1cccc(CC)c1-n1nc2c(c1-c1ccc(C)c3[nH]ccc13)CN(c1ncc(C(C)C)cn1)CC2 [Example 1.147]
22 | < 5 | CCc1cccc(CC)c1-n1nc2c(c1-c1ccc(Cl)c3[nH]ccc13)CN(c1nc(C)cc(C)n1)CC2 [Example 1.148]
23 | < 5 | CCc1cccc(CC)c1-n1nc2c(c1-c1c(F)cc(C)c3[nH]ccc13)CN(c1ncc(C(F)(F)F)cc1F)CC2 [Example 1.150]
24 | < 5 | CCc1cccc(CC)c1-n1nc2c(c1-c1ccc(Cl)c3[nH]ccc13)CN(c1ncc(C(C)C)cc1F)CC2 [Example 1.152]
25 | 5 to 50 | Cc1cccc(C)c1-n1nc2c(c1-c1ccc(Cl)c3[nH]ccc13)CN(c1ncc(C(C)C)cc1F)CC2 [Example 1.153]

Second part, the compound before the results:

Row | Compound | IC50 [nM]
26 | CCc1cccc(CC)c1-n1nc2c(c1-c1c(F)cc(CO)c3[nH]ccc13)CN(c1ncc(C(F)(F)F)cn1)CC2 [Example 1.101] | < 5
27 | Cc1cccc(C)c1-n1nc2c(c1-c1cc(F)c(C)c3[nH]ccc13)CN(c1ncc(C(F)(F)F)cn1)CC2 [Example 1.102] | 5 to 50
28 | Cc1cccc(C)c1-n1nc2c(c1-c1cc(F)c(C)c3[nH]ccc13)CN(c1ncc(C(F)(F)F)cc1F)CC2 [Example 1.103] | 5 to 50
29 | CCc1cccc(CC)c1-n1nc2c(c1-c1c(F)cc(CO)c3[nH]ccc13)CN(c1ncc(C(F)(F)F)cc1F)CC2 [Example 1.104] | < 5
30 | Cc1cccc(C)c1-n1nc2c(c1-c1c(F)cc(Cl)c3[nH]ccc13)CN(c1ncc(C(C)C)cc1F)CC2 [Example 1.105] | 5 to 50
31 | Cc1cccc(C)c1-n1nc2c(c1-c1c(F)cc(Cl)c3[nH]ccc13)CN(c1ccc(C(C)C)cn1)CC2 [Example 1.106] | < 5
32 | Cc1cccc(C)c1-n1nc2c(c1-c1ccc(C)c3[nH]ccc13)CN(c1ncc(C(F)(F)F)cn1)CC2 [Example 1.107] | 5 to 50
33 | COc1cnc(N2CCc3nn(-c4c(C)cccc4C)c(-c4c(F)cc(Cl)c5[nH]ccc45)c3C2)nc1 [Example 1.111] | 5 to 50
34 | COc1cnc(N2CCc3nn(-c4c(C)cccc4C)c(-c4ccc(Cl)c5[nH]ccc45)c3C2)nc1 [Example 1.112] | 5 to 50
35 | CCc1cccc(CC)c1-n1nc2c(c1-c1ccc(Cl)c3[nH]ccc13)CN(c1nccc(OC)n1)CC2 [Example 1.113] | < 5
36 | COc1cnc(N2CCc3nn(-c4c(C)cccc4C)c(-c4ccc(C)c5[nH]ccc45)c3C2)nc1 [Example 1.114] | 5 to 50
37 | CCc1cccc(CC)c1-n1nc2c(c1-c1cc(F)c(F)c3[nH]ccc13)CN(c1ccc(C(F)(F)F)cn1)CC2 [Example 1.116] | 5 to 50
38 | CCc1cccc(CC)c1-n1nc2c(c1-c1cc(F)c(F)c3[nH]ccc13)CN(c1ncc(C(F)(F)F)cn1)CC2 [Example 1.118] | 5 to 50
39 | CCc1cccc(CC)c1-n1nc2c(c1-c1ccc(Cl)c3[nH]ncc13)CN(c1ncc(C(F)(F)F)cc1F)CC2 [Example 1.119] | 5 to 50
40 | CCc1cccc(CC)c1-n1nc2c(c1-c1ccc(Cl)c3[nH]ccc13)CN(c1ncc(Cl)c(OC)n1)CC2 [Example 1.121] | 5 to 50
41 | Cc1cccc(C)c1-n1nc2c(c1-c1c(F)cc(Cl)c3[nH]ccc13)CN(c1ncc(C(F)(F)F)cn1)CC2 [Example 1.122] | 5 to 50
42 | Cc1cccc(C)c1-n1nc2c(c1-c1c(F)cc(Cl)c3[nH]ccc13)CN(c1ncc(C(F)(F)F)cc1F)CC2 [Example 1.124] | 5 to 50
43 | CCc1cccc(CC)c1-n1nc2c(c1-c1ccc(Cl)c3[nH]ccc13)CN(c1nccc(N)n1)CC2 [Example 1.129] | 50 to 500
44 | Cc1cccc(C)c1-n1nc2c(c1-c1ccc(C)c3[nH]ccc13)CN(c1ccc(C(F)(F)F)cn1)CC2 [Example 1.130] | 5 to 50
45 | Cc1cccc(C)c1-n1nc2c(c1-c1ccc(C)c3[nH]ccc13)CN(c1ncc(C(C)C)cn1)CC2 [Example 1.131] | 5 to 50
46 | CCc1cccc(CC)c1-n1nc2c(c1-c1c(F)cc(Cl)c3[nH]ccc13)CN(c1ccc(C(F)(F)F)cn1)CC2 [Example 1.133] | < 5
47 | COc1cccc(C)c1-n1nc2c(c1-c1ccc3[nH]ccc3c1)CN(C(=O)OC(C)(C)C)CC2 [Example 1.134] | 50 to 500
48 | CCc1cccc(CC)c1-n1nc2c(c1-c1c(F)cc(Cl)c3[nH]ccc13)CN(c1ncc(C(F)(F)F)cn1)CC2 [Example 1.137] | < 5
49 | CCc1cccc(CC)c1-n1nc2c(c1-c1ccc(Cl)c3[nH]ccc13)CN(c1nccc(C(F)(F)F)n1)CC2 [Example 1.138] | < 5
50 | CCc1cccc(CC)c1-n1nc2c(c1-c1c(F)cc(C)c3[nH]ccc13)CN(c1ncc(C(F)(F)F)cn1)CC2 [Example 1.141] | < 5
51 | CCc1cccc(CC)c1-n1nc2c(c1-c1c(F)cc(Cl)c3[nH]ccc13)CN(c1ncc(C(F)(F)F)cc1F)CC2 [Example 1.144] | < 5
52 | CCc1cccc(CC)c1-n1nc2c(c1-c1ccc(Cl)c3[nH]ccc13)CN(C(=O)Nc1ccccc1)CC2 [Example 1.149] | 5 to 50
53 | Cc1cccc(C)c1-n1nc2c(c1-c1ccc(Cl)c3[nH]ccc13)CN(c1ncc(C(C)C)cn1)CC2 [Example 1.151] | < 5
